Results from PubChem BioAssay AID1259407 (Chemical Carcinogenesis Research Information System (CCRIS), 2018).
Activity calls are given as the source filed them. The rule behind the calls is not given here.

Test system: CCRIS mutagenicity, Ames/micronucleus/aberration tests
Test: CCRIS mutagenicity studies
Details: Test System: AMES SALMONELLA TYPHIMURIUM, Method: PREINCUBATION

Measured: mutagenic call

O=C(O)CNC(=O)c1ccc([N+](=O)[O-])cc1
inactive: Strain/Indicator: TA98, Metabolic Activation: HAMSTER, LIVER, S-9, AROCLOR 1254 (30%) inactive; negative | Strain/Indicator: TA98, Metabolic Activation: RAT, LIVER, S-9, AROCLOR 1254 (30%) inactive; negative | Strain/Indicator: TA100, Metabolic Activation: HAMSTER, LIVER, S-9, AROCLOR 1254 (5, 10 OR 30%) inactive; negative | Strain/Indicator: TA100, Metabolic Activation: RAT, LIVER, S-9, AROCLOR 1254 (5, 10 OR 30%) inactive; negative | Strain/Indicator: TA1535, Metabolic Activation: HAMSTER, LIVER, S-9, AROCLOR 1254 (5, 10 OR 30%) inactive; negative | Strain/Indicator: TA1535, Metabolic Activation: NONE inactive; negative | Strain/Indicator: TA1535, Metabolic Activation: RAT, LIVER, S-9, AROCLOR 1254 (5, 10 OR 30%) inactive; negative
active: Strain/Indicator: TA98, Metabolic Activation: NONE active; positive | Strain/Indicator: TA100, Metabolic Activation: NONE active; positive | Strain/Indicator: TA1538, Metabolic Activation: NONE active; positive
